Source: publication PMC12401824, “Studies on the impact of modifications at the Gln-Trp site in RM2-based GRPR ligands” (EJNMMI Research, 2025)
“And” between values parts separate entries of the source, which are not always exact repeats. Equal values may be shown once. “Also recorded” adds a separate entry of the source. Read-outs that look alike come from different tables or passages of the source. Starred links: 1 amine or outer side, 2 acyl side, 3 side chain; linkers in the order of their positions; H or OH if unused. Non-standard residues stand in square brackets, D forms with d. Residues, ends and D or L forms follow the SMILES beside them. *: point of attachment. DOTA = O=C(O)CN1CCN(CC(=O)O)CCN(CC(=O)*)CCN(CC(=O)O)CC1; Sta = CC(C)C[C@H](N)[C@@H](O)CC(=O)O; Bta = N[C@@H](Cc1csc2ccccc12)C(=O)O; X1 = O=C(CN1CCC(N[*:1])CC1)[*:2]; hSer = N[C@@H](CCO)C(=O)O

What was measured:
[1] = test system: PC-3 tumor xenograft; assay: Competition study: co-injection of excess Lu-RM2 in PC-3 tumor-bearing mice; assay type: in vivo; conditions: ^177Lu-labeled, 100 pmol; co-injection of 40 nmol Lu-RM2; 1 h p.i.; n = 3
Experimental: µPET/CT imaging. Imaging studies were performed at a MILabs VECTor^4 small-animal SPECT/PET/OI/CT device (MILabs, Utrecht, the Netherlands). Data were reconstructed using the MILabs Rec software (version 10.02) and a pixel-based Similarity-Regulated Ordered Subsets Expectation Maximization (SROSEM) algorithm, followed by data analysis using the PMOD4.0 software (PMOD TECHNOLOGIES LLC, Zurich, Switzerland). […] Static images were recorded at 1 h p.i. with an acquisition time of 45–60 min (3–4 frames, 15 min each) using the HE-GP-RM collimator and a step-wise multi-planar bed movement. Depending on the size of the mouse, either four or eight bed position were required, with an imaging time of ~ 1.8 min or ~ 3.6 min per bed position. For competition studies, 3.62 mg/kg (40 nmol) of Lu-RM2 (10^−3 M in PBS) were co-administered.
Figure S6. […] Data are expressed as mean ± SD (n = 4). […] Data are expressed as mean ± SD (n = 3).

[2] = Biodistribution in PC-3 tumor-bearing CB17-SCID mice; assay type: in vivo; conditions: mouse, intravenous, 100 pmol, ^177Lu-labeled, 100 pmol, n = 4; for tissue uptake at 1 h: 1 h p.i.; for tissue uptake at 24 h: 24 h p.i.
Experimental: To establish tumor xenografts, PC-3 cells (5.0 × 10^6 cells per 200 µL) were suspended in a 1/1 mixture (v/v) of Dulbecco’s modified eagle's medium/Ham’s F-12 with Glutamax-I (v/v = 1/1) and Cultrex® Basement Membrane Matrix Type 3 (Trevigen Inc., Gaithersburg, MD, USA) and inoculated subcutaneously onto the right shoulder of CB17-SCID mice (Charles River Laboratories International Inc., Sulzfeld, Germany). Mice (n = 4) were used for experiments when tumor volume has reached 125–500 mm^3 (2–3 weeks after inoculation).
Biodistribution. […] (n = 4), respectively. Selected organs were removed, weighted and measured in a γ-counter.

[3] = Metabolic stability in vivo in mice (intact tracer in serum); conditions: ^177Lu-labeled, healthy mice
Experimental: Metabolic stability in vivo was determined according to a previously published protocol by injecting approximately 30–40 MBq (1 nmol, 150 µL) of the ^177Lu-labeled compounds into the tail vein of anesthetized CB17-SCID mice (n = 3).

[4] = adrenal, read-out: Uptake in Adrenal
[5] = blood, read-out: Uptake in Blood
[6] = heart, read-out: Uptake in Heart
[7] = intestine, read-out: Uptake in Intestine
[8] = kidney, read-out: Uptake in Kidney
[9] = liver, read-out: Uptake in Liver
[10] = muscle, read-out: Uptake in Muscle
[11] = pancreas, read-out: Uptake in Pancreas
[12] = spleen, read-out: Uptake in Spleen
[13] = stomach, read-out: Uptake in Stomach
[14] = tumor, read-out: Uptake in Tumor

Row | SMILES | Specificity of tumor accumulation (competition with excess of Lu-RM2) [1] | tissue uptake at 1 h [2, 4] | tissue uptake at 24 h [2, 4] | tissue uptake at 1 h [2, 5] | tissue uptake at 24 h [2, 5] | tissue uptake at 1 h ([2]; bone, read-out: Uptake in Bone) | tissue uptake at 24 h ([2]; bone, read-out: Uptake in Bone) | tissue uptake at 1 h [2, 6] | tissue uptake at 24 h [2, 6] | tissue uptake at 1 h [2, 7] | tissue uptake at 24 h [2, 7] | tissue uptake at 1 h [2, 8] | tissue uptake at 24 h [2, 8] | tissue uptake at 1 h [2, 9] | tissue uptake at 24 h [2, 9] | tissue uptake at 1 h ([2]; lung, read-out: Uptake in Lung) | tissue uptake at 24 h ([2]; lung, read-out: Uptake in Lung) | tissue uptake at 1 h [2, 10] | tissue uptake at 24 h [2, 10] | tissue uptake at 1 h [2, 11] | other results
1 | CC(C)C[C@H](NC(=O)C[C@H](O)[C@H](CC(C)C)NC(=O)[C@H](Cc1c[nH]cn1)NC(=O)CNC(=O)[C@@H](NC(=O)[C@H](C)NC(=O)[C@H](Cc1csc2ccccc12)NC(=O)[C@H](CCC(N)=O)NC(=O)[C@@H](Cc1ccccc1)NC(=O)CN1CCC(NC(=O)CN2CCN(CC(=O)O)CCN(CC(=O)O)CCN(CC(=O)O)CC2)CC1)C(C)C)C(N)=O [[^177Lu]Lu-[Bta^8]RM2, metal not drawn] ({DOTA}-[X1][dF]Q[Bta]AVGH[Sta]L-NH2) | specific | 1.1 ± 0.1 %ID/g | 0.59 ± 0.33 %ID/g | 1.6 ± 0.1 %ID/g | 0.04 ± 0.04 %ID/g | 0.9 %ID/g | 2.58 ± 1.05 %ID/g | 0.7 %ID/g | 0.09 ± 0.01 %ID/g | 1 ± 0.3 %ID/g | 0.28 ± 0.07 %ID/g | 4.4 ± 0.4 %ID/g | 2.07 ± 0.23 %ID/g | 1.1 ± 0.1 %ID/g | 0.77 ± 0.09 %ID/g | 1.8 ± 0.2 %ID/g | 0.22 ± 0.11 %ID/g | 0.2 ± 0.1 %ID/g | 0.02 ± 0.02 %ID/g | 3.7 ± 1.4 %ID/g | tissue uptake at 24 h [2, 11]: 0.17 ± 0.02 %ID/g; tissue uptake at 24 h [2, 12]: 0.32 ± 0.06 %ID/g; tissue uptake at 1 h [2, 13]: 1.3 ± 0.3 %ID/g; tissue uptake at 24 h [2, 13]: 0.27 ± 0.08 %ID/g; tissue uptake at 1 h [2, 14]: 12.1 ± 1.8 %ID/g; tissue uptake at 24 h [2, 14]: ~2 %ID/g; Intact compound in murine serum in vivo, 15 min after injection [3]: < 20% and ~ 10%; Intact compound in murine serum in vivo, 30 min after injection [3]: did not show any intact; also recorded: could not detect any intact
2 | CC(C)C[C@H](NC(=O)C[C@H](O)[C@H](CC(C)C)NC(=O)[C@H](Cc1c[nH]cn1)NC(=O)CNC(=O)[C@@H](NC(=O)[C@H](C)NC(=O)[C@H](Cc1c[nH]c2ccccc12)NC(=O)[C@H](CCO)NC(=O)[C@@H](Cc1ccccc1)NC(=O)CN1CCC(NC(=O)CN2CCN(CC(=O)O)CCN(CC(=O)O)CCN(CC(=O)O)CC2)CC1)C(C)C)C(N)=O [[^177Lu]Lu-[Hse^7]RM2, metal not drawn] ({DOTA}-[X1][dF][hSer]WAVGH[Sta]L-NH2) | specific | 1.2 ± 0.5 %ID/g | 0.61 ± 0.21 %ID/g | 1 ± 0.2 %ID/g | 0.02 %ID/g | 0.2 %ID/g | 2.37 ± 1.13 %ID/g | 0.4 ± 0.1 %ID/g | 0.11 ± 0.03 %ID/g | 1.6 ± 0.2 %ID/g | 0.38 ± 0.11 %ID/g | 4.8 ± 0.3 %ID/g | 1.94 ± 0.28 %ID/g | 0.9 ± 0.1 %ID/g | 0.96 ± 0.15 %ID/g | 0.9 ± 0.2 %ID/g | 0.17 ± 0.02 %ID/g | 0.2 %ID/g | 0.01 %ID/g | 8 ± 0.5 %ID/g | tissue uptake at 24 h [2, 11]: 0.14 ± 0.01 %ID/g; tissue uptake at 1 h [2, 12]: 0.6 ± 0.2 %ID/g; tissue uptake at 24 h [2, 12]: 0.36 ± 0.03 %ID/g; tissue uptake at 1 h [2, 13]: 2.2 ± 0.3 %ID/g; tissue uptake at 24 h [2, 13]: 0.26 ± 0.01 %ID/g; tissue uptake at 1 h [2, 14]: 16.6 ± 1.6 %ID/g; tissue uptake at 24 h [2, 14]: ~2 %ID/g; Intact compound in murine serum in vivo, 15 min after injection [3]: < 20% and ~ 19%; Intact compound in murine serum in vivo, 30 min after injection [3]: did not show any intact; also recorded: could not detect any intact
